Measured values: ChEMBL document CHEMBL1131662, “Synthesis and structure-activity relationship of potent bicyclic lactam thrombin inhibitors” (Bioorg Med Chem Lett, 1999)

target: T1, Prothrombin (Homo sapiens, UniProt P00734); assay: In vitro inhibitory activity against human thrombin.(Slow moving component on HPLC)

Compound `C[C@]12CC[C@@H](CCCc3ccccc3)C(=O)N1[C@H](C(=O)NC(CCCN=C(N)N)C(=O)c1nccs1)CS2` (stereo not given in full) has a Ki of 6 nM.

target: T1, Prothrombin; assay: In vitro inhibitory activity against human thrombin.( Fast moving component on HPLC)

For `C[C@]12CC[C@@H](CCCc3ccccc3)C(=O)N1[C@H](C(=O)NC(CCCN=C(N)N)C(=O)c1nccs1)CS2` (stereo not given in full), the Ki was 2 nM.

target: T1, Prothrombin; assay: In vitro inhibitory activity against human thrombin.

Compared with `C[C@]12CC[C@@H](Cc3ccccc3)C(=O)N1[C@H](C(=O)NC(CCCN=C(N)N)C(=O)c1nc3ccccc3s1)CS2` (stereo not given in full), `C[C@]12CC[C@@H](CCc3ccccc3)C(=O)N1[C@H](C(=O)NC(CCCN=C(N)N)C(=O)c1nc3ccccc3s1)CS2` (stereo not given in full) is 13-fold higher in Ki: 18 nM for the first, 235 nM for the second.

Compared with `C[C@]12CC[C@H](CCc3ccccc3)C(=O)N1[C@H](C(=O)NC(CCCN=C(N)N)C(=O)c1nc3ccccc3s1)CS2` (stereo not given in full), `C[C@]12CC[C@H](CCCc3ccccc3)C(=O)N1[C@H](C(=O)NC(CCCN=C(N)N)C(=O)c1nccs1)CS2` (stereo not given in full) is 5.5-fold lower in Ki: 550 nM for the first, 100 nM for the second. The second binds more tightly here.

First: C[C@]12CC[C@@H](c3ccc4nc(C(F)(F)F)ccc4c3)C(=O)N1[C@H](C(=O)NC(CCCN=C(N)N)C(=O)c1nccs1)CS2 (stereo not given in full)
Second: C[C@]12CC[C@H](c3ccc4nc(C(F)(F)F)ccc4c3)C(=O)N1[C@H](C(=O)NC(CCCN=C(N)N)C(=O)c1nccs1)CS2 (stereo not given in full)
The Ki of the first is 15-fold lower: 10 nM for the first, 150 nM for the second. The first binds more tightly here.

First: C[C@]12CC[C@@H](c3ccc4nc(C(F)(F)F)ccc4c3)C(=O)N1[C@H](C(=O)NC(CCCN=C(N)N)C(=O)c1nc3ccccc3s1)CS2 (stereo not given in full)
Second: NC(N)=NCCCC(NC(=O)[C@@H]1CS[C@H]2CC[C@H](Cc3ccccc3)C(=O)N21)C(=O)c1nc2ccccc2s1 (stereo not given in full)
The Ki of the first is 62-fold lower: 18 nM for the first, 1110 nM for the second.
